The test system of one assay is mice with colitis. Set-up: method as in PMID 9145424. As to conditions: twice-daily α-MSH exposure; cited from earlier work.
In assay [1] the test system is male Wistar rats with DSS-induced colitis. Put plainly: DSS-induced colitis model in rats. In kind it is in vivo. The method, then: . Groups of 6 male Wistar rats weighing 200 ± 20 g were used. All animals, except those in the sham group, received 5% DSS in the drinking water for 3 days, from day 1 to day 3, which was then changed to normal drinking water for the following 5 days in the study. The rats in the sham group were given drinking water only. […]. Mesalazine, which is approved for the treatment of IBD, including ulcerative colitis and Crohn’s disease, was administered orally as a positive control (300 mg/kg once daily) starting on day 4 through day 7 for a total of 4 consecutive days ( Figure 1 ). Colitis was assessed by disease activity index (diarrhea and rectal bleeding) during the study and by colon length shortening, colon weight gain, and colon histopathologic assessment after organ harvesting on day 8. At termination on day 8, 24 hours after the last dose, colon tissues were harvested, rinsed, photographed, weighed, and their lengths measured, and then cut into 2 halves 7 cm from the anus. One half of the harvested colon tissue was snap-frozen with liquid nitrogen for cytokine measurement (interferon [IFN]-γ, IL-1β, IL-6, and TNF-α). The other half of the colon tissue was further cut into 3 parts 2.5, 5, and 7 cm from the anus, fixed in 10% formalin, and kept in 70% ethanol for histopathology. The colon length and colon-to-body weight ratio was calculated for each animal according to the formula: colon weight (g)/body weight (g) × 100%. Colon tissues from rats (n=6 per treatment group) were drop-fixed in 4% paraformaldehyde embedded in paraffin, and sectioned at 4 µm. For histologic scoring, colon sections were stained with hematoxylin and eosin. For immunohistochemistry, colon sections were processed for antigen retrieval and immunostained with primary antibody: keratin 18 (K18) (1:400, Bioss, bs-5405R) and with a rabbit-specific biotin-conjugated secondary antibody from HistoWiz (HistoWiz, Inc. Brooklyn, NY). Representative images were taken at 10x magnification and quantification was performed using HistoWiz AI technology counting positive cells versus all nuclei, specifically in the crypts. All analyses were performed by blinded individuals.
Histologic criteria for the analysis of colitis included abnormalities of mucosal architecture, extent of inflammation, erosion or ulceration, epithelial regeneration, and the percentage involvement of the disease process. The scoring was based on the findings of independent observers by examining 3 colon sections from each animal. Scoring was from 0 = none to 4 = severe for each item, except for percentage involvement of disease process, which scored from 1 (1%–25%) to 4 (76%–100%). Total scores for colitis (total colitis index) were added, resulting in a combined histologic score range from 0 to 60 ( Table S1 ).
Descriptive statistics were used for assessment of colon damage scores (diarrhea, rectal bleeding, and colon weight gain) (DNBS and DSS rat studies) and for the distribution of PL8177 and main metabolite in the GI tract (Sprague-Dawley rat and dog studies). Mean ± SEM were determined, and 1-way analysis of variance followed by Dunnett’s test was applied for comparison between the vehicle and treated groups. Significance was set at the P<0.05 level.
Table S1.Scoring Table for Calculating Total Colitis Index Score in DSS Colitis –Induced Rats
Abnormalities of mucosal None (Norm al) 0
Minimal for focal, not exceeding laminar propria 1
Mild abnormality, cystic dilation/aberrant crypts 2
Moderate or multifocal abnormalities 3
Severe, entire crypt and epithelium lost 4
Extent of inflammation None 0
Minimal for focal, scatter ed calls (<10 %) 1
Moderate, inflammatory cells extending into the submucosa 3
Severe, transmural leukocytic infiltrate from mucosa to serosa 4
Erosion or ulceration No erosion, ulceration, or granulation tissue 0
Minimal or focal, not exceeding lamina propri a 1
Severe ulceration or granulation tissue 4
Epithelial regression Complete regeneration or normal tissue 0 […]

Where [2] appears, read: Mesalazine 300 mg/kg QD oral, days 4-7, day 8, n=6.

Data on two compounds can be found in article PMC9986545, “A novel oral formulation of the melanocortin-1 receptor agonist PL8177 resolves inflammation in preclinical studies of inflammatory bowel disease and is gut restricted in rats, dogs, and humans” (Frontiers in Immunology, 2023).

Turning to α-MSH, the “Reduction in fecal blood” value with mice with colitis was 80%.
For `Nc1ccc(O)c(C(=O)O)c1` [Mesalazine], the “% Decrease in Colon Weight vs Vehicle Control” value in assay [1] (Mesalazine 300 mg/kg QD oral, days 4-7, day 8) was 35%. For the same compound, in assay [1] (setting [2]), the “Mean Colon Length (SEM)” value is 18.6 (0.5) cm, the “Mean Colon Weight (SEM)” value is 0.570 (0.031) g, the “Mean Colon Weight/100 g Body Weight (SEM)” value is 0.235 (0.012) and the “Net Increase (SEM) of colon weight/100 g body weight” value was 0.073 (0.012). In assay [1] (Mesalazine 300 mg/kg QD oral, days 4-7, n=6), the “Mean Body Weight (SEM) (Day 8)” value was 242.5 (3.0) g. Besides, the “Number of K18 positive cells in colon crypts (immunohistochemistry) vs vehicle” value in assay [1] (PL8177 (100 µg) or mesalazine, day 8) is listed as “increased number of K18 positive cells, similar to sham”. The “Total colitis score (total colitis index), mean [SD]” value in assay [1] (mesalazine 300 mg/kg QD oral, histology day 8, n=6, range 0-60) is 28.5 [7.71].
